A value given as a limit tells only on which side of the number the result lay.

The target of one test is T1, human ML1A (Homo sapiens, UniProt P48039).
T1 construct: expressed in transfected cells; host or cells: COS-1 cells, transient transfection (DEAE-dextran) with pcDNAI; membrane homogenates
T1 sequence (P48039 whole entry): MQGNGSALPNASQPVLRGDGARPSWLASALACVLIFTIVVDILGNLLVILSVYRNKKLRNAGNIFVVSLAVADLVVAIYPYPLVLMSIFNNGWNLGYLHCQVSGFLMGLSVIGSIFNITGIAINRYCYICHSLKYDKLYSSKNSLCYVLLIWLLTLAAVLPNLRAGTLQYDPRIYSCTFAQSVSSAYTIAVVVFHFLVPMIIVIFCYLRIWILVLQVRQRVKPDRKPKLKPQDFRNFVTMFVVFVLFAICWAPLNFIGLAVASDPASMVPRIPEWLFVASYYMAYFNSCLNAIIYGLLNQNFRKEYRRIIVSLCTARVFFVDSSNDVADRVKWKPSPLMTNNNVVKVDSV
The test is described as follows: Measurement of melatonergic binding: displacement of 2-[125I]-iodomelatonin from membranes of COS-1 cells transfected with human ML1A cDNA. As to conditions: Binding affinity (IC50) at the human melatonin receptor, Table 5: displacement of 2-[125I]-Iodomelatonin; Formula I compounds with R1 and R = H, G = methylene. How it is done: Example 145 (Measurement of Melatonergic Binding)
The melatonergic binding of the compounds of Formula I was determined by a modification of the method of Reppert, S. M. et al. (Neuron, Volume 13, pages 1177-1185, 1994). […] The reagents, membranes, and other parameters used in the assay are described below: Reagents: • (a) 50 mM Tris buffer containing 12.5 mM MgCl2, and 2 mM EDTA (pH 7.4 at 37 °C). • (b) Wash buffer: 20 mM Tris base containing 2 mM MgCl2 (pH 7.4 at room temperature). • (c) 6-Chloromelatonin (10^-5 M final concentration). • (d) 2-[^125I]-Iodomelatonin (100 pM final concentration). (Source: NEN) Membrane preparation: The cDNA (human ML1A) in pcDNAI was introduced into COS-1 cells by the DEAE-dextran method. Three days later, after media removal, the plates were washed with buffered saline; the cells removed using Hank's balanced salt solution and pelleted. The supernant was discarded and the pellets frozen. For membrane homogenates, the pellets were thawed and resuspended in TME buffer, Tris base, MgCl2, EDTA (pH 7.4 at 37 °C), and supplemented with aprotinin, leupeptin, and phenylmethylsulfonyl fluoride. The cells were homogenized and centrifuged; the resulting pellet resuspended in TME and frozen. At assay, the small aliquot was thawed on ice and resuspended in TME buffer. Incubation: 37 °C for 1 hour. Reaction is terminated by filtration.
`CCCC(=O)NC[C@@H]1C[C@H]1c1cccc(O)c1` (single isomer, unassigned) [Example 79]: the IC50 (commonly the concentration that inhibits the measured activity by half) fell in the range of 40 to 250 nM.

As to `CCCC(=O)NC[C@@H]1C[C@H]1c1cc(F)ccc1I` (single isomer, unassigned) [Example 70], the IC50 lay in the range of 40 to 250 nM. On the same count and under the same terms, then `CCCC(=O)NC[C@@H]1C[C@H]1c1cccc(OC(F)(F)F)c1` (single isomer, unassigned) [Example 64], with 5 to 40 nM; and `CCCC(=O)NC[C@@H]1C[C@H]1c1cccc(F)c1` (racemic) [Example 44], with 40 to 250 nM; and `CCCC(=O)NC[C@@H]1C[C@H]1c1cccc(C(F)(F)C(F)(F)F)c1` (single isomer, unassigned) [Example 89], with 40 to 250 nM. The same measure, in the same setting: then `CCCC(=O)NC[C@@H]1C[C@H]1c1cc(F)ccc1Br` (single isomer, unassigned) [Example 66], with 5 to 40 nM; and `CCCC(=O)NC[C@@H]1C[C@H]1c1ccc(I)c(OC(F)(F)F)c1` (single isomer, unassigned) [Example 69], with 5 to 40 nM; and `CCCC(=O)NC[C@@H]1C[C@H]1c1cccc(OC(C)C)c1` (racemic) [Example 8, (trans)-N-[[2-[3-(Methylethoxy)phenyl]cyclopropyl]methyl] butanamide], with 40 to 250 nM. Consider `CCCC(=O)NC[C@@H]1C[C@H]1c1ccc(I)c(F)c1` (single isomer, unassigned) [Example 71, (-)-(trans)-N-[[2-(3-Fluoro-4-iodophenyl)cycloprop-1-yl]methyl] butanamide], for which the IC50 was in the range of 40 to 250 nM.

The same test, now with this note: Binding affinity (IC50) at the human melatonin receptor, Table 6: displacement of 2-[125I]-Iodomelatonin; Formula I compounds with X = OCH3, Y and Z = H, R1 = H.
`CCCC(=O)NC(C)[C@@H]1C[C@H]1c1cccc(OC)c1` (single isomer, unassigned) [Example 136]: the IC50 was 5 to 40 nM. Still for that read-out and setting: then `CCCC(=O)NC(C)[C@@H]1C[C@H]1c1cccc(OC)c1` (single isomer, unassigned; (-)) [Example 14, (-)-(trans)-N-[1-[2-(3-Methoxyphenyl)cyclopropyl]ethyl] butanamide], with 40 to 250 nM. The molecule `CCCC(=O)NC[C@H]1[C@H](c2cccc(OC)c2)C1(F)F` (racemic) [Example 12, (±)-(trans)-[2,2-Difluoro-3-(3-methoxyphenyl)-cyclopropylmethyl] butanamide] registered an IC50 of under 5 nM. Take `CCCC(=O)NC[C@H]1[C@H](c2cccc(OC)c2)C1(C)C` (racemic) [Example 17, (trans)-N-[[3-(3-methoxyphenyl)-2,2-dimethyl-1-cyclopropyl]methyl]butanamide]: the IC50 lay within 250 to 600 nM.

Still in this test, the particulars now being: Table 4 (continued): displacement of 2-[125I]-Iodomelatonin; Formula I compounds with X = OCH3, R = H, G = methylene.
`CCCC(=O)NC[C@@H]1C[C@H]1c1cc(OC)ccc1I` [Example 32, (-)-(trans)-N-[[2-(2-Iodo-5-methoxyphenyl)cyclopropyl]methyl] butanamide]: the IC50 was under 5 nM.

`COc1cccc([C@@H]2C[C@H]2CNC(=O)C2CCCC2)c1` (single isomer, unassigned) [Example 37] came in with an IC50 of 250 to 600 nM. Turning to `COc1cccc([C@@H]2C[C@H]2CNC(=O)CCCCl)c1` (single isomer, unassigned) [Example 35], the IC50 was in the range of 5 to 40 nM. The same measure, in the same setting: under `COc1cccc([C@@H]2C[C@H]2CNC(=O)C2CC2)c1` [Example 36, (-)-(trans)-N-[[2-(3-Methoxyphenyl)cycloprop-1-yl]methyl]cyclopropane carboxamide] stands under 5 nM; under `CCCC(=O)NC[C@@H]1C[C@H]1c1ccc(Cl)c(OC)c1` (racemic) [Example 27, (trans)-N-[[2-(4-Chloro-3-methoxyphenyl)cyclopropyl]methyl] butanamide], under 5 nM. The same measure, in the same setting: then `CNC(=O)NC[C@@H]1C[C@H]1c1cccc(OC)c1` [Example 39, (-)-(trans)-N-[[2-(3-Methoxyphenyl)cycloprop-1-yl]methyl]-N'-methyl urea], with under 5 nM; and `COc1cccc([C@@H]2C[C@H]2CNC(C)=O)c1` [Example 41, (-)-(trans)-N-[[2-(3-Methoxyphenyl)cycloprop-1-yl]methyl] acetamide], with under 5 nM.

`CCCC(=O)NC[C@@H]1C[C@H]1c1ccc(I)c(OC)c1` [Example 33, (-)-(trans)-N-[[2-(4-Iodo-3-methoxyphenyl)cycloprop-1-yl]methyl] butanamide] registered an IC50 of 5 to 40 nM. The same measure, in the same setting: under `CCCC(=O)NC[C@@H]1C[C@H]1c1cc(OC)ccc1-c1ccc(C(F)(F)F)cc1` [Example 34, (-)-(trans)-N-[[2-[4-Methoxy-4'-(trifluoromethyl) [1,1'-biphenyl]-2yl]cycloprop-1-yl]methyl] butanamide] stands 5 to 40 nM. Still for that read-out and setting: under `COc1cccc([C@@H]2C[C@H]2CNC(=O)CC(F)(F)F)c1` (single isomer, unassigned) [Example 42, (-)-(trans)-3,3,3-Trifluor-N-[[2-(3-methoxyphenyl)cycloprop-1-yl]methyl] propanamide] stands under 5 nM.

Staying with this test, now noted: displacement of 2-[125I]-Iodomelatonin (100 pM); COS-1 membranes, human ML1A; 37 °C for 1 hour.
In turn, `COc1cccc([C@@H]2C[C@H]2CNC(=O)C(C)C)c1` [Example 22, (-)-(trans)-N-[[2-(3-Methoxyphenyl)cyclopropyl]methyl]-2-methylpropanamide] gave an IC50 of 5 to 40 nM.

Molecule `CCCC(=O)NC[C@@H]1C[C@H]1c1cc(OC)ccc1CCc1ccccc1` (single isomer, unassigned) [Example 9b] registered an IC50 of 5 to 40 nM. Still for that read-out and setting: then `CCCC(=O)NC[C@@H]1C[C@H]1c1cc(OC)ccc1C#N` [Example 10, (-)-(trans)-N-[[2-(2-Cyano-5-methoxyphenyl]cyclopropyl]methyl] butanamide], with 5 to 40 nM. On the same count and under the same terms, then `CCCC(=O)NC[C@@H]1C[C@H]1c1cc(OC)ccc1C#Cc1ccccc1` (single isomer, unassigned) [Example 9a], with under 5 nM; and `CCCC(=O)NC[C@@H]1C[C@H]1c1cc(OC)ccc1-c1ccccc1` [Example 11, (-)-(trans)-N-[[2-(2-Phenyl-5-methoxyphenyl]cyclopropyl]methyl] butanamide], with 5 to 40 nM.

Regarding `CCCC(=O)NC[C@@H]1C[C@H]1c1cccc(OC)c1` (single isomer, unassigned) [Example 3a, (+)-(trans)-N-[[2-(3-Methoxyphenyl)cyclopropyl]methyl]butanamide], the IC50 was 5 to 40 nM. Still for that read-out and setting: under `CCCC(=O)NC[C@@H]1C[C@H]1c1cc(OC)ccc1NC(=O)CCC` (relative stereo) [Example 13, (trans)-N-[[2-(2-Butyrylamino-5-methoxyphenyl)cyclopropyl]methyl] butanamide] stands 250 to 600 nM; under `CCCC(=O)NC[C@@H]1C[C@H]1c1cccc(OCC2C(c3cccc(OC)c3)C2(C)C)c1` (some centres unmarked) [Example 131], 5 to 40 nM. On to `CCCC(=O)NC[C@@H]1C[C@H]1c1cc(OC)c(Br)cc1Br` (relative stereo) [Example 5, (trans)-N-[[2-(2,4-Dibromo-5-methoxyphenyl)cyclopropyl]methyl] butanamide], for which the IC50 is under 5 nM. On the same count and under the same terms, under `CCCC(=O)NC[C@@H]1C[C@H]1c1cccc(OC)c1` [Example 3b, (-)-(trans)-N-[[2-(3-Methoxyphenyl)cyclopropyl]methyl] butanamide] stands under 5 nM; under `CCCC(=O)NC[C@@H]1C[C@H]1c1cccc(OCC2CC2c2cccc(OC)c2)c1` (mixture of isomers) [Example 132, (trans)-N-[[2-[3-[[2-(3-Methoxyphenyl)cycloprop-1-yl]methoxy]phenyl]cycloprop-1-yl]methyl] butanamide], under 5 nM.

Staying with this test, now noted: read-out: Binding affinity (IC50) at the human melatonin receptor; Table 5: displacement of 2-[125I]-Iodomelatonin; Formula I compounds with R1 and R = H, G = methylene.
As to “(trans)-N-[2-[(3-Trideuteromethoxyphenyl)cycloprop-1-yl]methyl] butanamide [Example 111]”, the IC50 was under 5 nM.

The values above are taken from patent EP0747346B1, “N-acyl-2 aryl cyclopropylmethylamine derivatives as melatonergics” (BRISTOL-MYERS SQUIBB COMPANY, priority 1995, dated 1996).
